We go through 15 compounds from patent US8193191B2, “Urotensin II receptor antagonists” (Janssen Pharmaceutica N.V., priority 2006, dated 2012).

Where two headings read alike, the source gives them in different places.

For assay [1], the target named is T1, rat GPR14 (U-II receptor) (Rattus norvegicus, UniProt P49684).
T1 construct: expressed in transfected cells
T1 sequence (P49684 1-386): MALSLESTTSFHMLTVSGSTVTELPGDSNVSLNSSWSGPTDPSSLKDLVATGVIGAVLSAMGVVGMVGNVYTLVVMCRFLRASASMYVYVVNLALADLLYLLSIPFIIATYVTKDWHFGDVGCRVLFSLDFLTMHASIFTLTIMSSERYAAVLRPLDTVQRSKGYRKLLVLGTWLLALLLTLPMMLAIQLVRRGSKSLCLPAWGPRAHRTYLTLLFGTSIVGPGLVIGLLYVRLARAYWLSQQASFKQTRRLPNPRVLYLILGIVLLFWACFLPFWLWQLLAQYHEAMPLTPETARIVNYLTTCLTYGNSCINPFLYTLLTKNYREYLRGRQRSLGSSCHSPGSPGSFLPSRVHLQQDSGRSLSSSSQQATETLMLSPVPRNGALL
As to the kind of experiment: Rat UII Calcium Mobilization FLIPR Assay. In kind it is cell-based. Particulars: average value for the compound tested; read-out: Rat UII FLIPR Average IC50. In short, it runs like this:
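Fluorescent calcium signals were recorded at room temperature (23° C) by FLIPR. Stable rat U-II receptor CHO lines had been dye-loaded for 1 h at 37° C in pH 7.4 HBSS containing 20 mM HEPES, 0.1% BSA and 2.5 mM probenecid.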

Assay [2] addresses T2, Human UII receptor, 6D9 human rhabdomyosarcoma cells (Homo sapiens, UniProt Q9UKP6).
T2 construct: 6D9: isolated by dilution subcloning of RMS13 cells, ATCC® Number: CRL-2061; host or cells: 6D9 human rhabdomyosarcoma cells (subclone of RMS13)
T2 sequence (Q9UKP6 1-389): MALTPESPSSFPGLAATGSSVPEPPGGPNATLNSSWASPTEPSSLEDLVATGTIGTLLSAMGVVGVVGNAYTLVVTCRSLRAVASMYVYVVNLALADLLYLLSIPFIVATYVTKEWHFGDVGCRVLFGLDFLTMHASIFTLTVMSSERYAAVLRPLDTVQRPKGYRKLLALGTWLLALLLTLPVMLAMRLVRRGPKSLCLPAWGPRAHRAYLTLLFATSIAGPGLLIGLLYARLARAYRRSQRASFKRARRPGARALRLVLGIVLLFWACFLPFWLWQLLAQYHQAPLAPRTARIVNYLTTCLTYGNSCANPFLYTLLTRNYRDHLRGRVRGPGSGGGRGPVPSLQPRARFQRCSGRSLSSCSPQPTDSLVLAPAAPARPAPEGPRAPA
As to the kind of experiment: Human UII Calcium Mobilization Assay. The class given is cell-based. The following applies: average value, FLIPR TETRA, read-out: Human UII Ca^+ Mobilization Average IC50. An outline of the steps: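 FLIPR calcium responses were recorded for 4 minutes after room-temperature addition of test antagonist and U-II, in dye-loaded human 6D9 cells (37° C, 45 min; HBSS/HEPES with probenecid 1.25 mM). Compounds serially diluted in HBSS/HEPES, up to 0.1% DMSO; curves gave IC50 and EC50.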
A general note: Calcium assays in cells follow changes in intracellular calcium, usually with a dye or a luminescent sensor.

In assay [3] the target is T3, endogenous human UII receptor (Homo sapiens, UniProt Q9UKP6).
T3 sequence (Q9UKP6 1-389): T2 sequence (Q9UKP6 1-389)
As to the kind of experiment: Human Radioligand Binding Assay ((^125I)-U-II binding to human skeletal muscle myoblasts).

Where [4] appears, read: read-out: Human UII Average Binding Ki, average value, (^125I)-U-II binding to human skeletal muscle myoblasts (HSMM), 25° C., 3 h.

Regarding `COc1ccc([C@@H](CCCNC(=O)c2cc(C)on2)N2C(=O)c3cccc(N4CCN([C@H](C)c5ccccc5)CC4)c3C2=O)cc1OC` [Cpd 159, (R)-5-methyl-isoxazole-3-carboxylic acid (4-(3,4-dimethoxy-phenyl)-4-{1,3-dioxo-4-[4-(1R)-(1-phenyl-ethyl)-piperazin-1-yl]-1,3-dihydro-isoindol-2-yl}-butyl)-amide], the half-maximal inhibitory concentration (IC50) (in general, the concentration that gives 50% inhibition) came to 34 nM in assay [1] and 750 nM in assay [2]. Affinity in assay [3] was put at a Ki of 150 nM.

With `COc1ccc([C@@H](CCCNC(=O)c2ccnnc2)N2C(=O)c3cccc(N4CCN([C@H](C)c5ccccc5)CC4)c3C2=O)cc1OC` [Cpd 160, (R)-pyridazine-4-carboxylic acid (4-(3,4-dimethoxy-phenyl)-4-{1,3-dioxo-4-[4-(1R)-(1-phenyl-ethyl)-piperazin-1-yl]-1,3-dihydro-isoindol-2-yl}-butyl)-amide], the values for the IC50 in assay [1] and in assay [2] were 12 nM and 400 nM, respectively. The affinity in assay [3], expressed as Ki, was 140 nM.

Consider `COc1ccc([C@@H](CCCNC(=O)c2nccn2C)N2C(=O)c3cccc(N4CCN([C@H](C)c5ccccc5)CC4)c3C2=O)cc1OC` [Cpd 161, (R)-1-methyl-1H-imidazole-2-carboxylic acid (4-(3,4-dimethoxy-phenyl)-4-{1,3-dioxo-4-[4-(1R)-(1-phenyl-ethyl)-piperazin-1-yl]-1,3-dihydro-isoindol-2-yl}-butyl)-amide], for which the IC50 worked out at 19 nM in assay [1] and 630 nM in assay [2]. Further, the affinity in assay [3], expressed as Ki, was 120 nM.

As for `COc1ccc([C@@H](CCCNC(=O)c2cc(C)c(C)o2)N2C(=O)c3cccc(N4CCN([C@H](C)c5ccccc5)CC4)c3C2=O)cc1OC` [Cpd 162, (R)-4,5-dimethyl-furan-2-carboxylic acid (4-(3,4-dimethoxy-phenyl)-4-{1,3-dioxo-4-[4-(1R)-(1-phenyl-ethyl)-piperazin-1-yl]-1,3-dihydro-isoindol-2-yl}-butyl)-amide], the half-inhibitory concentration (IC50) in assay [1] was 35 nM; in assay [2], 430 nM. Moreover, the Ki (as a rule, the equilibrium dissociation constant of an inhibitor or competing ligand from its target) in assay [3] was 170 nM.

As to `COc1ccc([C@@H](CCCNC(=O)c2cscn2)N2C(=O)c3cccc(N4CCN([C@H](C)c5ccccc5)CC4)c3C2=O)cc1OC` [Cpd 163, (R)-thiazole-4-carboxylic acid (4-(3,4-dimethoxy-phenyl)-4-{1,3-dioxo-4-[4-(1R)-(1-phenyl-ethyl)-piperazin-1-yl]-1,3-dihydro-isoindol-2-yl}-butyl)-amide], the IC50 in assay [1] was determined as 15 nM; in assay [2] it was 500 nM. For the same compound, the inhibition constant Ki in assay [3] came out at 95 nM.

`COc1ccc([C@@H](CCCNC(=O)c2c(C)noc2C)N2C(=O)c3cccc(N4CCN([C@H](C)c5ccccc5)CC4)c3C2=O)cc1OC` [Cpd 164, (R)-3,5-dimethyl-isoxazole-4-carboxylic acid (4-(3,4-dimethoxy-phenyl)-4-{1,3-dioxo-4-[4-(1R)-(1-phenyl-ethyl)-piperazin-1-yl]-1,3-dihydro-isoindol-2-yl}-butyl)-amide]: the IC50 in assay [1] amounted to 13 nM; in assay [2], 300 nM. This compound registered a Ki in assay [3] of 100 nM.

Consider `COc1ccc([C@@H](CCCNC2=CCCN2)N2C(=O)c3cccc(N4CCN([C@H](C)c5ccccc5)CC4)c3C2=O)cc1OC` [Cpd 165, (R)-2-[4-(4,5-dihydro-1H-pyrrol-2-ylamino)-1-(3,4-dimethoxy-phenyl)-butyl]-4-[4-(1R)-(1-phenyl-ethyl)-piperazin-1-yl]-isoindole-1,3-dione], for which the concentration for half-maximal inhibition (IC50) was found to be 18 nM in assay [1] and 1100 nM in assay [2]. Besides, in assay [3], the inhibition constant Ki came out at 350 nM.

Turning to `COc1ccc([C@@H](CCCNC(C)=N)N2C(=O)c3cccc(N4CCN([C@H](C)c5ccccc5)CC4)c3C2=O)cc1OC` [Cpd 166, (R)-N-(4-(3,4-dimethoxy-phenyl)-4-{1,3-dioxo-4-[4-(1R)-(1-phenyl-ethyl)-piperazin-1-yl]-1,3-dihydro-isoindol-2-yl}-butyl)-acetamidine], the IC50 in assay [1] worked out at 26 nM; in assay [2] it was 2600 nM. This compound also yielded a Ki in assay [3] of 510 nM.

Turning to `COc1ccc([C@@H](CCCNS(=O)(=O)c2cccs2)N2C(=O)c3cccc(N4CCNCC4)c3C2=O)cc1OC` [Cpd 167, (R)-thiophene-2-sulfonic acid [4-(3,4-dimethoxy-phenyl)-4-(1,3-dioxo-4-piperazin-1-yl-1,3-dihydro-isoindol-2-yl)-butyl]-amide], the IC50 in assay [1] was determined as 40 nM; in assay [2] it was 500 nM. Further, in assay [3] (setting [4]), the inhibition constant Ki was found to be 150 nM.

For `CCN1CCN(c2cccc3c2C(=O)N([C@H](CCCNS(=O)(=O)c2cccs2)c2ccc(OC)c(OC)c2)C3=O)CC1` [Cpd 168, (R)-thiophene-2-sulfonic acid {4-(3,4-dimethoxy-phenyl)-4-[4-(4-ethyl-piperazin-1-yl)-1,3-dioxo-1,3-dihydro-isoindol-2-yl]-butyl}-amide], the IC50 in assay [1] was 4.8 nM; in assay [2] it was 150 nM. Moreover, the inhibition constant (Ki) in assay [3] (setting [4]) came to 35 nM.

As to `COc1ccc([C@@H](CCCNS(=O)(=O)c2cccs2)N2C(=O)c3cccc(N4CCN(C)CC4)c3C2=O)cc1OC` [Cpd 169, (R)-thiophene-2-sulfonic acid {4-(3,4-dimethoxy-phenyl)-4-[4-(4-methyl-piperazin-1-yl)-1,3-dioxo-1,3-dihydro-isoindol-2-yl]-butyl}-amide], the concentration for half-maximal inhibition (IC50) in assay [1] is 16 nM; in assay [2] it was 220 nM. The inhibition constant Ki in assay [3] (setting [4]) came out at 59 nM.

With `COc1ccc([C@@H](CCCNS(=O)(=O)c2cccs2)N2C(=O)c3cccc(N4CCN(Cc5ccoc5)CC4)c3C2=O)cc1OC` [Cpd 170, (R)-thiophene-2-sulfonic acid {4-(3,4-dimethoxy-phenyl)-4-[4-(4-furan-3-ylmethyl-piperazin-1-yl)-1,3-dioxo-1,3-dihydro-isoindol-2-yl]-butyl}-amide], the IC50 is 8.4 nM in assay [1] and 410 nM in assay [2]. This compound showed a Ki in assay [3] of 31 nM.

For the compound `COc1ccc([C@@H](CCCNS(=O)(=O)c2cccs2)N2C(=O)c3cccc(N4CCN(Cc5cccnc5)CC4)c3C2=O)cc1OC` [Cpd 171, (R)-thiophene-2-sulfonic acid {4-(3,4-dimethoxy-phenyl)-4-[1,3-dioxo-4-(4-pyridin-3-ylmethyl-piperazin-1-yl)-1,3-dihydro-isoindol-2-yl]-butyl}-amide], the half-inhibitory concentration (IC50) in assay [1] stood at 11 nM; in assay [2], 1000 nM. The compound further displayed an inhibition constant (Ki) in assay [3] of 370 nM.

For the compound `COc1ccc([C@@H](CCCNS(=O)(=O)c2cccs2)N2C(=O)c3cccc(N4CCN(Cc5ccsc5)CC4)c3C2=O)cc1OC` [Cpd 172, (R)-thiophene-2-sulfonic acid {4-(3,4-dimethoxy-phenyl)-4-[1,3-dioxo-4-(4-thiophen-3-ylmethyl-piperazin-1-yl)-1,3-dihydro-isoindol-2-yl]-butyl}-amide], the 50% inhibitory concentration (IC50) in assay [1] came to 11 nM; in assay [2], 220 nM. In assay [3], this compound displayed a Ki of 26 nM.

`COc1ccc([C@@H](CCCNC(=O)C2CCOC2)N2C(=O)c3cccc(N4CCN([C@H](C)c5ccccc5)CC4)c3C2=O)cc1OC` (stereo partly drawn) [Cpd 173, (R)-tetrahydro-furan-3-carboxylic acid (4-(3,4-dimethoxy-phenyl)-4-{1,3-dioxo-4-[4-(1R)-(1-phenyl-ethyl)-piperazin-1-yl]-1,3-dihydro-isoindol-2-yl}-butyl)-amide]: the results for the half-maximal inhibitory concentration (IC50) in assay [1] and in assay [2] were 11 nM and 800 nM, respectively. Moreover, in assay [3], the Ki worked out at 66 nM.
